Assay results from patent publication US11541065B2, “Compositions and methods for treating brain injury” (UNM RAINFOREST INNOVATIONS, priority 2018, dated 2023).

How the values were obtained:
[Ca^2+]i = Intracellular Ca^2+ by Fura2 imaging, rat neuronal cultures; assay type: cell-based; settings: for effect on homocysteine-induced increase in Fura2 fluorescence ratio and [Ca^2+]i: rat neurons, somata and processes, L-homocysteine 50 μM 60 minutes, with EGTA 2 mM, DL-AP5 200 μM, NVP-AAM077 30 nM or Ro 25-6981 1 μM
Experimental: (§1) Embryos obtained from pregnant Sprague Dawley rats (16-17-day gestation) or wild type (WT) and GluN2A KO mice (15-16-day gestation) were used to establish primary cortical neuronal cultures as previously described (Poddar and Paul, 2009, J Neurochem 110:1095-1106; Poddar and Paul, 2013, J Neurochem 124:558-570; Poddar et al., 2017, J Neurochem 142:560-573). Neurons were grown on either (a) 35-mm culture dishes (MatTek Corp., Ashland, Mass.) coated overnight with poly-D-lysine (50 μg/ml) and laminin (10 μg/ml) for Ca^2+ imaging studies, (b) poly-D-lysine-coated 60 mm dishes (Corning BIOCOAT, Corning Inc., Corning, N.Y.) for biochemical studies, or (c) poly-D-lysine-coated 4-well culture slides (Corning BIOCOAT, Corning Inc., Corning, N.Y.) for cell death assay. Neurons were maintained in culture for 12-13 days before experiment. The cells were treated with freshly prepared L-homocysteine (50 μM) in Hank's balanced salt solution containing 50 μM of glycine (Lipton et al., 1997, Proceedings of the National Academy of Sciences of the United States of America 94:5923-5928; Poddar and Paul, 2009, J Neurochem 110:1095-1106; Poddar and Paul, 2013, J Neurochem 124:558-570; Poddar et al., 2017, J Neurochem 142:560-573) for the specified time periods. In a parallel series of experiments, cells were treated with glutamate (50 μM) for the specified time periods. Cells were then processed for live cell imaging, immunoblotting or cell death assay. In some experiments EGTA, DL-AP5, NVP-AAM077, Ro 25-6981 or PD98059 was added 15 minutes prior to L-homocysteine or glutamate treatment.
[Ca^2+]i in neurons was determined using the fluorescent indicator, Fura2-AM. Briefly, neurons were loaded with Fura2 (10 μM) in phenol red free Hank's balanced salt solution for 30 minutes at 37° C. followed by post-incubation for 20 minutes (Paul, S. and Connor, J. A., 2010, J Neurochem 114:1107-1118). Time lapse live cell imaging was performed following stimulation using a Nikon Ti Eclipse inverted microscope equipped with Tokai Hit stage top incubator maintained at 37° C. and infused with 95:5% air:CO2 mixture. Fields of 5-8 cells were imaged using a 40× oil immersion objective (Nikon). Fluorescence excitations (340 and 380 nm) were provided with Sutter LB-LS/30 Lambda xenon arc lamp and fluorescence emissions (510 nm) were captured using a CCD camera (Teledyne Photometries, Tucson, Ariz.). NIS Elements AR software was used for data acquisition and analysis. Ratiometric data (340/380 nm) from regions of interest were corrected for background and converted into estimates of [Ca^2+]i. as described previously (Paul, S. and Connor, J. A., 2010, J Neurochem 114:1107-1118) using the equation developed earlier (Grynkiewicz et al., 1985, J Biol Chem 260:3440-3450). Maximum and minimum fluorescence ratios were determined from Fura2 loaded cells treated with ionomycin (5 μM) in calcium containing medium (2 mM) or in calcium free media with EGTA (0.5 mM).

ERK MAPK = ERK MAPK phosphorylation in rat cortical neuron cultures (immunoblot); assay type: cell-based
Excerpt: Primary cortical neuronal cultures were established from embryos obtained from pregnant Sprague Dawley female rats (16-17 day gestation) as previously described (Podder and Paul, 2009, J Neurochem 110:1095-1106; Poddar and Paul, 2013, J Neurochem 124: 558-570). Primary cortical neuronal cultures were also developed from pregnant wildtype or GluN2A-knockout mice (15-16 day gestation) using similar protocols. The cells were maintained in culture for 12-14 days prior to treatment with homocysteine. L-homocysteine (200 mM stock) was prepared by alkali hydrolysis of L-homocysteine thiolactone hydrochloride followed by neutralization with 2N HCL and maintained in 0.02 mM N-Tris(hydroxymethyl)methyl-2-aminoethanesulfonicd acid (TES) buffer pH 7.4 (Poddar et al., 2001, Circulation 103:2717-2723). For receptor stimulation neurons were treated with freshly prepared 50 μM of L-homocysteine in Hank's balanced salt solution (Podder and Paul, 2009, J Neurochem 110:1095-1106; Poddar and Paul, 2013, J Neurochem 124: 558-570) containing 50 μM of glycine (Lipton et al., 1997, Proc Natl Acad Sci USA 94:5923-5928). In a subset of culture plates, pharmacological inhibitors (NVP-AAM007) were added […] prior to homocysteine addition and maintained during homocysteine treatment. Cells were processed for immunoblotting or Hoechst DNA staining.
Equal protein from total cell lysates obtained from rat and mice neuronal cultures were resolved in 7.5% SDS-PAGE, and subjected to immunoblotting procedure as described earlier (Podder and Paul, 2009, J Neurochem 110:1095-1106). Blots were analyzed with antibodies as described in each experiment. All primary antibodies (anti-pERK, anti-ERK) and secondary-horse radish peroxidase conjugated antibody concentrations were used according to recommendations provided by the manufacturer. Signals from immune complexes in the blots were developed using West Pico supersignal chemiluminescence reagents and then captured on X-ray films. Densitometric analysis of the images was performed using the Image J software.
as §1
Rat and mice neuron cultures were harvested in SDS sample buffer (Laemmli, 1970, Nature 227:680-685). […]

[1] = rat cortical neurons, L-homocysteine 50 μM four hours, in presence of NVP-AAM077 (30 nM) or Ro 256981 (1 μM)

## N[C@@H](CCS)C(=O)O [L-homocysteine]
[Ca^2+]i; rat neurons (soma), L-homocysteine 50 μM, by 60 minutes
  maximum increase in [Ca^2+]i vs control cells: approximately 7.2 folds
ERK MAPK; rat cortical neurons, L-homocysteine 50 μM, four hours, alone
  ERK MAPK phosphorylation: significant increase in ERK MAPK phosphorylation

## C[C@H](NC(c1cccc2[nH]c(=O)c(=O)[nH]c12)P(=O)(O)O)c1ccc(Br)cc1 (stereo partly drawn) [NVP-AAM077, ({[(1S)-1-(4-bromophenyl)ethyl]amino}-(2,3-dioxo-1,4-dihydroquinoxalin-5-yl)methyl)phosphonic acid]
[Ca^2+]i
  effect on homocysteine-induced increase in Fura2 fluorescence ratio and [Ca^2+]i: attenuates homocysteine-induced increase in Fura2 fluorescence ratio and [Ca^2+]i
ERK MAPK; [1]
  effect on homocysteine-induced ERK MAPK phosphorylation: blocks homocysteine-induced ERK MAPK phosphorylation
ERK MAPK; rat neurons, L-homocysteine 50 μM for 30 minutes or 60 minutes, with DL-AP5 200 μM or NVP-AAM077 30 nM
  effect on homocysteine-induced ERK MAPK phosphorylation: attenuates homocysteine-induced ERK MAPK phosphorylation
ERK MAPK; rat neurons, glutamate 50 μM five min, with DL-AP5 200 μM or NVP-AAM077 30 nM
  effect on glutamate-induced transient increase in ERK MAPK phosphorylation: fails to ameliorate

## C[C@@H](CN1CCC(Cc2ccccc2)CC1)[C@@H](O)c1ccc(O)cc1 [Ro 25-6981]
[Ca^2+]i
  effect on homocysteine-induced increase in Fura2 fluorescence ratio and [Ca^2+]i: fails to attenuate homocysteine-induced [Ca^2+]i increase
ERK MAPK; [1]
  effect on homocysteine-induced ERK MAPK phosphorylation: has no effect
